Reference: publication PMC6382874, “Succinylation-dependent mitochondrial translocation of PKM2 promotes cell survival in response to nutritional stress” (Cell Death & Disease, 2019)

Molecular target: PKM2 (Homo sapiens, UniProt P14618)
Assay: fluorescent pyruvate kinase-lactate dehydrogenase (PK-LDH) coupled assay, PKM2
Type: biochemical
Design: His-tag (N); made in house; host or cells: Escherichia coli BL21
Settings: for selectivity for PKM2 over PKM1 and PKL: Supplementary Figure S4c
Protocol: A random screening of an in-house small molecule library (~1000 total molecules) was undertaken to identify new PKM2 modulators, which can block the interaction of PKM2 and VDAC3. The activity of these test compounds was assessed with a fluorescent PK-LDH coupled assay by a previously reported method (Supplementary Figure S4a)[37]. […] We undertook structural optimization by chemical modification. We designed new compounds utilizing a methyl group instead of the NP-1 chlorine moiety. Synthesis of target compounds was carried out according to the six-step protocol outlined in Supplementary Figure S4d, which was based on a previously described procedure[39],[40].
Human cDNA for PKM2, PKM1, and VDAC3 were separately cloned into a pET28a (+) and pGEX-4T-1 vector with an N-terminal His-tag and N-terminal GST-tag and purified from the Escherichia coli strain BL21 (Invitrogen) using Ni–agarose beads and GST agarose beads (Qiagen) as described previously. PKL was purchased from Sino Biological Inc. in China.
Pyruvate kinase activity was measured with a fluorescent pyruvate kinase–lactate dehydrogenase coupled assay as described previously. All compounds were tested in a kinetic mode by coupling the generation of pyruvate by pyruvate kinase to the depletion of NADH through lactate dehydrogenase. For PKM2, 40 μL of buffer (50 mM Tris–HCl, pH 7.5, 10 mM KCl, 5 mM MgCl2), 1 μL of compound and 5 μL of enzyme solution were dispensed into Corning black solid 96-well plates and incubated for 15 min. Totally, 55 μL of substrate mix (final concentration, 0.5 mM PEP, 4.0 mM ADP, 0.12 mM NADH, 0.25 mM FBP, and 1 unit LDH) were then added, and the plates were placed in a FlexStation3 (Molecular Devices), followed by determination of NADH fluorescence at 30 s exposure intervals for 3–6 min. Data were collected on a FlexStation3.

Chain of PKM2 (P14618 whole entry): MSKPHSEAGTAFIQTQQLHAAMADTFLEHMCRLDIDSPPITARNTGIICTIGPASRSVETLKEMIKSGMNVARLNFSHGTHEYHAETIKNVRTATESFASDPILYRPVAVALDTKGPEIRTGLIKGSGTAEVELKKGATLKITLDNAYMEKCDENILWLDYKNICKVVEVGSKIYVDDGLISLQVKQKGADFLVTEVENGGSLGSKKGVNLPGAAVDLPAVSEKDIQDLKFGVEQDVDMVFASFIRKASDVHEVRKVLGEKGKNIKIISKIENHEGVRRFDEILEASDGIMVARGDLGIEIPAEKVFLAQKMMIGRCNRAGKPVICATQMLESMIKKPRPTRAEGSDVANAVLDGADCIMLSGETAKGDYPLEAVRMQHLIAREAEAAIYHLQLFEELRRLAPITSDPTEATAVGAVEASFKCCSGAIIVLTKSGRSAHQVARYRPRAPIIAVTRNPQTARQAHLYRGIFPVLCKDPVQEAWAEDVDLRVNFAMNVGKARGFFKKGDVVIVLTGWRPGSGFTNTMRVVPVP

CCCN(CCC)P(N)(=O)OCC1=CC(=O)c2ccccc2C1=O (stereo not shown) [Compound 8]
selectivity for PKM2 over PKM1 and PKL: markedly inhibited PKM2, but inhibited PKM1 and PKL to much smaller extent
selectivity for PKM2 over PKM1 and PKL (listed as compound 8): PKM2 inhibitor of high selectivity
IC50 on PKM2 relative to NP-1 (ratio of IC50 values of Table 1): about threefold lower than that of NP-1
IC50 (recombinant enzyme, PK-LDH coupled assay, 15 min preincubation, read-out: IC50 (PKM2)): 770 ± 300 nM
